Measured values: patent US9718788B2, “Heteroaryl compounds useful as inhibitors of E1 activating enzymes” (MILLENNIUM PHARMACEUTICALS, INC., priority 2006, dated 2017)

Biological target: T1, recombinant human NAE enzyme (Homo sapiens, UniProt Q8TBC4)
T1 construct: His (N); made in house; host or cells: Sf9 insect cells (baculovirus, Bac-to-Bac)
T1 sequence (Q8TBC4 1-463): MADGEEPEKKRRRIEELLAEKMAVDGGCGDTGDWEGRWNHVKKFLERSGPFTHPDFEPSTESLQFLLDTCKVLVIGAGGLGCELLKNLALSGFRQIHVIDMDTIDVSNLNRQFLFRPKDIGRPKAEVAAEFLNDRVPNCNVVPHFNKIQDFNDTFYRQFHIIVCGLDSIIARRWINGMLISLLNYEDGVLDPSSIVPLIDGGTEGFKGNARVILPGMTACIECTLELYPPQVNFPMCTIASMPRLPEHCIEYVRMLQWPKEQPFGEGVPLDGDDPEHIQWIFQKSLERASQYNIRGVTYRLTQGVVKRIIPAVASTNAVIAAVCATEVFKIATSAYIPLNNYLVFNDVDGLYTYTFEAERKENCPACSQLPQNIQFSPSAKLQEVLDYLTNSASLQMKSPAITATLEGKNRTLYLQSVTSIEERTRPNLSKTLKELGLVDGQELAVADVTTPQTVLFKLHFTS
T1 sequence (Q13564 1-534 partner): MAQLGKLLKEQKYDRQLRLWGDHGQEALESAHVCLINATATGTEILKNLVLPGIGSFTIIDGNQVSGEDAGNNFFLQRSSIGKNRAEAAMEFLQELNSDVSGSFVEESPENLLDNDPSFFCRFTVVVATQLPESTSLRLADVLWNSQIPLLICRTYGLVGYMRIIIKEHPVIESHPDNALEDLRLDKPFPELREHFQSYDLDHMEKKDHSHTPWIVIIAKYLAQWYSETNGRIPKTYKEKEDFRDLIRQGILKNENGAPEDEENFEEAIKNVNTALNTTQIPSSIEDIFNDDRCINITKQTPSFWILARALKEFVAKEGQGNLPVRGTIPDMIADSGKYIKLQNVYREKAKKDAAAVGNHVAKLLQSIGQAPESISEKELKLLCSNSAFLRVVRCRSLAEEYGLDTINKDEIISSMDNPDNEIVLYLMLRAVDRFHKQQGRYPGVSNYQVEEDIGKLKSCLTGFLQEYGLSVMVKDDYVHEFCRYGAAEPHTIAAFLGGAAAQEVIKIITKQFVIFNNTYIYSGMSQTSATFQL
Assay: Nedd8-Activating Enzyme (NAE) HTRF Assay
Format: biochemical
Details: 20 μM ATP
In short: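 Recombinant human NAE (NAEα/His-NAEβ from Sf9 cells) at 0.20 nM with 20 μM ATP, 0.01 μM Ubc12-GST and 0.075 μM Nedd8-Flag in HEPES pH 7.5, 105 min at 24° C. EDTA stop; Eu-anti-FLAG/APC-anti-GST HTRF read after 1 h.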

IC50 (bound given in nM) [nM] | IC50 (bound given in μM) [nM] | Structure (SMILES)
≤ 500 |  | NS(=O)(=O)OC[C@@H]1C[C@@H](Oc2ncnc3nc(-c4cncc5ccccc45)[nH]c23)C[C@@H]1O [Compound I-112, {(1S,2S,4R)-2-hydroxy-4-[(8-isoquinolin-4-yl-7H-purin-6-yl)oxy]cyclopentyl}methyl sulfamate]
> 500 | < 10000 | NS(=O)(=O)OC[C@H]1C[C@@H](Nc2nc(N[C@H]3CCc4ccccc43)ncc2F)[C@H](O)[C@@H]1O [Compound I-113, [(1R,2R,3S,4R)-4-({2-[(1S)-2,3-dihydro-1H-inden-1-ylamino]-5-fluoropyrimidin-4-yl}-amino)-2,3-dihydroxycyclopentyl]methyl sulfamate]
> 500 | < 10000 | NS(=O)(=O)OC[C@@H]1C[C@@H](Oc2cc(-c3ccccc3)ncn2)C[C@@H]1O [Compound I-114, {(1S,2S,4R)-2-hydroxy-4-[(6-phenylpyrimidin-4-yl)oxy]cyclopentyl}methyl sulfamate]
≤ 500 |  | CO[C@H]1Cc2ccccc2[C@H]1Nc1cc(O[C@@H]2C[C@@H](COS(N)(=O)=O)[C@@H](O)C2)ncn1 [Compound I-115, {(1S,2S,4R)-2-hydroxy-4-[(6-{[(1R,2S)-2-methoxy-2,3-dihydro-1H-inden-1-yl]amino}pyrimidin-4-yl)oxy]cyclopentyl}methyl sulfamate]
≤ 500 |  | NS(=O)(=O)OC[C@@H]1C[C@@H](Nc2ncnc3nc(-c4cccc5c4OCC5)[nH]c23)C[C@@H]1O [Compound I-117, ((1S,2S,4R)-4-{[8-(2,3-dihydro-1-benzofuran-7-yl)-7H-purin-6-yl]amino}-2-hydroxycyclopentyl)methyl sulfamate]
≤ 500 |  | NS(=O)(=O)OC[C@H]1C[C@@H](Nc2cc(Nc3cccc4c3CCCC4)ncn2)[C@H](O)[C@@H]1O [Compound I-118, ((1R,2R,3S,4R)-2,3-dihydroxy-4-{[6-(5,6,7,8-tetrahydronaphthalen-1-ylamino)pyrimidin-4-yl]amino}cyclopentyl)methyl sulfamate]
> 500 | < 10000 | NS(=O)(=O)OC[C@@H]1C[C@@H](Oc2cc(OCc3cccc4ccccc34)ncn2)C[C@@H]1O [Compound I-119, ((1S,2S,4R)-2-hydroxy-4-{[6-(1-naphthylmethoxy)pyrimidin-4-yl]oxy}cyclopentyl)methyl sulfamate]
> 500 | < 10000 | NS(=O)(=O)OC[C@@H]1C[C@@H](Oc2cc(N3Cc4ccccc4C3)ncn2)C[C@@H]1O [Compound I-120, ((1S,2S,4R)-4-{[6-(1,3-dihydro-2H-isoindol-2-yl)pyrimidin-4-yl]oxy}-2-hydroxycyclopentyl)methyl sulfamate]
≤ 500 |  | NS(=O)(=O)OC[C@@H]1C[C@@H](Nc2ncnc3[nH]c(C4CCCc5ccccc54)nc23)C[C@@H]1O (stereo partly drawn) [Compound I-121, ((1S,2S,4R)-2-hydroxy-4-{[8-(1,2,3,4-tetrahydronaphthalen-1-yl)-9H-purin-6-yl]amino}cyclopentyl)methyl sulfamate]
≤ 500 |  | NS(=O)(=O)OC[C@@H]1C[C@@H](Nc2ncnc3[nH]c(-c4ccccc4C(F)(F)F)nc23)C[C@@H]1O [Compound I-122, [(1S,2S,4R)-2-hydroxy-4-({8-[2-(trifluoromethyl)phenyl]-9H-purin-6-yl}amino)cyclopentyl]methyl sulfamate]
> 500 | < 10000 | CN(c1ncnc2c1nc(-c1ccccc1)n2C)[C@@H]1C[C@@H](COS(N)(=O)=O)[C@@H](O)C1 [Compound I-123, {(1S,2S,4R)-2-hydroxy-4-[methyl(9-methyl-8-phenyl-9H-purin-6-yl)amino]cyclopentyl}-methyl sulfamate]
≤ 500 |  | CC1(C)C[C@H](Nc2cc(O[C@@H]3C[C@@H](COS(N)(=O)=O)[C@@H](O)C3)ncn2)c2ccccc21 [Compound I-124, {(1S,2S,4R)-4-[(6-{[(1S)-3,3-dimethyl-2,3-dihydro-1H-inden-1-yl]amino}pyrimidin-4-yl)oxy]-2-hydroxycyclopentyl}methyl sulfamate]
≤ 500 |  | CO[C@H]1Cc2ccccc2[C@H]1Nc1ncnc(N[C@@H]2C[C@@H](COS(N)(=O)=O)[C@@H](O)C2)n1 [Compound I-125, {(1S,2S,4R)-2-hydroxy-4-[(4-{[(1R,2S)-2-methoxy-2,3-dihydro-1H-inden-1-yl]amino}-1,3,5-triazin-2-yl)amino]cyclopentyl}methyl sulfamate]
≤ 500 |  | NS(=O)(=O)OC[C@@H]1C[C@@H](Nc2ncnc3[nH]c(-c4cccc5c4CCCC5)nc23)C[C@@H]1O [Compound I-126, ((1S,2S,4R)-2-hydroxy-4-{[8-(5,6,7,8-tetrahydronaphthalen-1-yl)-9H-purin-6-yl]amino}cyclopentyl)methyl sulfamate]
> 500 | < 10000 | NS(=O)(=O)OC[C@@H]1C[C@@H](Oc2cc(NC3CCCC3)ncn2)C[C@@H]1O [Compound I-127, ((1S,2S,4R)-4-{[6-(cyclopentylamino)pyrimidin-4-yl]oxy}-2-hydroxycyclopentyl)methyl sulfamate]
≤ 500 |  | NS(=O)(=O)OC[C@@H]1C[C@@H](Nc2ncnc3[nH]c(C4CCCCC4)nc23)C[C@@H]1O [Compound I-128, {(1S,2S,4R)-4-[(8-cyclohexyl-9H-purin-6-yl)amino]-2-hydroxycyclopentyl}methyl sulfamate]
≤ 500 |  | NS(=O)(=O)OC[C@@H]1C[C@@H](Oc2ncnc3nc(-c4cnn(Cc5ccccc5)c4)[nH]c23)C[C@@H]1O [Compound I-129, ((1S,2S,4R)-4-{[8-(1-benzyl-1H-pyrazol-4-yl)-7H-purin-6-yl]oxy}-2-hydroxycyclopentyl)methyl sulfamate]
≤ 500 |  | Cn1c(-c2ccccc2)nc2c(N[C@@H]3C[C@@H](COS(N)(=O)=O)[C@@H](O)C3)ncnc21 [Compound I-130, {(1S,2S,4R)-2-hydroxy-4-[(9-methyl-8-phenyl-9H-purin-6-yl)amino]cyclopentyl}methyl sulfamate]
≤ 500 |  | CC(C)(C)c1nc2c(N[C@@H]3C[C@@H](COS(N)(=O)=O)[C@@H](O)C3)ncnc2[nH]1 [Compound I-131, {(1S,2S,4R)-4-[(8-tert-butyl-9H-purin-6-yl)amino]-2-hydroxycyclopentyl}methyl sulfamate]
> 500 | < 10000 | NS(=O)(=O)OC[C@@H]1C[C@@H](Oc2cc(Cc3ccccc3)ncn2)C[C@@H]1O [Compound I-132, {(1S,2S,4R)-4-[(6-benzylpyrimidin-4-yl)oxy]-2-hydroxycyclopentyl}methyl sulfamate]
≤ 500 |  | COc1ccccc1-c1nc2c(N[C@@H]3C[C@@H](COS(N)(=O)=O)[C@@H](O)C3)ncnc2[nH]1 [Compound I-133, ((1S,2S,4R)-2-hydroxy-4-{[8-(2-methoxyphenyl)-9H-purin-6-yl]amino}cyclopentyl)methyl sulfamate]
≤ 500 |  | CC1(C)C[C@H](Nc2ncnc(N[C@@H]3C[C@@H](COS(N)(=O)=O)[C@@H](O)C3)n2)c2ccccc21 [Compound I-134, {(1S,2S,4R)-4-[(4-{[(1S)-3,3-dimethyl-2,3-dihydro-1H-inden-1-yl]amino}-1,3,5-triazin-2-yl)amino]-2-hydroxycyclopentyl}methyl sulfamate]
≤ 500 |  | Cc1cccc(Sc2nc3ncnc(O[C@@H]4C[C@@H](COS(N)(=O)=O)[C@@H](O)C4)c3[nH]2)c1 [Compound I-136, [(1S,2S,4R)-2-hydroxy-4-({8-[(3-methylphenyl)sulfanyl]-7H-purin-6-yl}oxy)cyclopentyl]methyl sulfamate]
≤ 500 |  | CN(C)c1ccccc1-c1nc2c(N[C@@H]3C[C@@H](COS(N)(=O)=O)[C@@H](O)C3)ncnc2[nH]1 [Compound I-137, [(1S,2S,4R)-4-({8-[2-(dimethylamino)phenyl]-9H-purin-6-yl}amino)-2-hydroxycyclopentyl]methyl sulfamate]
> 500 | < 10000 | OC[C@@H]1C[C@@H](Nc2ncnc3[nH]c(-c4cccc5c4OCCO5)nc23)C[C@@H]1O [Compound I-138, (1S,2S,4R)-4-{[8-(2,3-dihydro-1,4-benzodioxin-5-yl)-9H-purin-6-yl]amino}-2-(hydroxymethyl)cyclopentanol]
≤ 500 |  | NS(=O)(=O)OC[C@@H]1C[C@@H](Oc2ncnc3nc(-c4ccc(N5CCCC5)c5ccccc45)[nH]c23)C[C@@H]1O [Compound I-139, ((1S,2S,4R)-2-hydroxy-4-{[8-(4-pyrrolidin-1-yl-1-naphthyl)-7H-purin-6-yl]oxy}cyclopentyl)methyl sulfamate]
